Experimental data as given in the supplement of paper PMC10307832.

Tests used:
Experiment in all cases: relative viability (nuclei count vs DMSO), 5 days (fraction); higher = more cells survive
[1] = compound: CCC1=CN=CN=C1N2CCN(CC2)CC3=NC4=C(N3)C=C(C=C4)C(F)(F)F + CS(=O)(=O)CCNCc1ccc(-c2ccc3ncnc(Nc4ccc(OCc5cccc(F)c5)c(Cl)c4)c3c2)o1 [Lapatinib] (partner 2 µM)
Outline: (§1)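 Relative viability equals treated-well nuclei counts divided by vehicle-well nuclei counts. Counts came from 4× images of lung cancer cell lines grown in 1536-well plates for 5 days after pin-tool dosing on the day after seeding. Dosing used one drug alone or a fixed anchor-drug dose plus five library-drug doses (not always all listed) in √10 steps, and values are medians of duplicate plates.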

[2] = compound: CCC1=CN=CN=C1N2CCN(CC2)CC3=NC4=C(N3)C=C(C=C4)C(F)(F)F + CCNC(=O)c1noc(-c2cc(C(C)C)c(O)cc2O)c1-c1ccc(CN2CCOCC2)cc1 [Luminespib] (partner 0.01 µM)
Outline: as §1

Mirin + OSI-027 = compound: N=C1NC(=O)/C(=C/c2ccc(O)cc2)S1 [Mirin] + COc1cccc2cc(-c3nc([C@H]4CC[C@H](C(=O)O)CC4)n4ncnc(N)c34)[nH]c12 [OSI-027] (partner 0.5 µM)
Outline: as §1

[3] = compound: CCn1c(-c2nonc2N)nc2cnc(Oc3cccc(NC(=O)c4ccc(OCCN5CCOCC5)cc4)c3)cc21 + CC1(C)CCC(c2ccc(Cl)cc2)=C(CN2CCN(c3ccc(C(=O)NS(=O)(=O)c4ccc(N[C@H](CCN5CCOCC5)CSc5ccccc5)c(S(=O)(=O)C(F)(F)F)c4)cc3)CC2)C1 [Navitoclax] (partner 0.5 µM)
Outline: as §1

| Cell Line | relative viability ([1]; first compound 0.04 µM) | relative viability ([1]; first compound 0.1265 µM) | relative viability ([1]; first compound 0.4 µM) | relative viability ([1]; first compound 1.265 µM) | relative viability ([1]; first compound 4 µM) | relative viability ([2]; first compound 0.04 µM) | relative viability ([2]; first compound 0.1265 µM) | relative viability ([2]; first compound 0.4 µM) | relative viability ([2]; first compound 4 µM) | relative viability (Mirin + OSI-027; first compound 0.25 µM) | relative viability (Mirin + OSI-027; first compound 0.7906 µM) | relative viability (Mirin + OSI-027; first compound 2.5 µM) | relative viability (Mirin + OSI-027; first compound 7.906 µM) | relative viability (Mirin + OSI-027; first compound 25 µM) | relative viability ([2]; first compound 1.265 µM) | relative viability ([3]; first compound 0.04 µM) | relative viability ([3]; first compound 0.1265 µM) | relative viability ([3]; first compound 0.4 µM) | relative viability ([3]; first compound 1.265 µM) | relative viability ([3]; first compound 4 µM) |
| --- | --- | --- | --- | --- | --- | --- | --- | --- | --- | --- | --- | --- | --- | --- | --- | --- | --- | --- | --- | --- |
| NCI-H358 | 0.477 | 0.399 | 0.428 | 0.337 | 0.387 | 0.288 | 0.263 | 0.339 | 0.194 | 0.783 | 0.843 | 0.793 | 0.542 | 0.368 | – | – | – | – | – | – |
| RERF-LC-KJ | 0.81 | 0.811 | 0.863 | 0.79 | 0.825 | 1.24 | 1.23 | 1.21 | 1.05 | 0.691 | 0.59 | 0.596 | 0.651 | 0.425 | 1.12 | 0.867 | 0.828 | 0.946 | 0.603 | 0.481 |
| NCI-H1792 | 0.769 | 0.808 | 0.851 | 0.978 | 0.884 | 0.507 | 0.496 | 0.427 | 0.42 | 0.724 | 0.746 | 0.745 | – | 0.634 | – | 0.732 | 0.58 | – | 0.348 | 0.518 |
| NCI-H647 | 1.27 | 1.04 | – | 0.802 | 1.09 | 0.228 | 0.181 | 0.147 | 0.152 | 0.759 | 0.688 | 0.572 | 0.645 | 0.503 | 0.0988 | 1.06 | 0.828 | 0.89 | 0.517 | 0.595 |
| SK-LU-1 | 0.924 | 0.855 | 0.926 | – | 0.902 | 0.205 | 0.203 | 0.213 | 0.213 | 0.387 | 0.35 | 0.333 | 0.276 | 0.228 | 0.178 | 1.07 | 0.619 | 0.383 | 0.296 | 0.229 |
| NCI-H441 | – | – | – | – | – | 0.387 | 0.345 | 0.315 | 0.396 | 0.673 | 0.6 | 0.598 | 0.473 | 0.602 | 0.358 | 0.745 | 0.653 | 0.481 | 0.323 | 0.508 |
| COR-L 105 | 0.35 | 0.331 | 0.395 | 0.275 | 0.426 | 0.8 | 1.08 | 0.77 | 0.732 | 0.7 | 0.684 | 0.829 | 0.975 | 0.434 | 0.724 | 0.618 | 0.762 | 0.522 | 0.262 | 0.355 |
| NCI-H1993 | 0.777 | 0.842 | 0.69 | 0.8 | 0.747 | 0.852 | 0.802 | 0.836 | 0.816 | 0.549 | – | 0.578 | 0.496 | 0.539 | 0.772 | 0.795 | 0.941 | – | 0.902 | 0.787 |
| NCI-H1437 | 0.777 | 0.668 | 0.74 | 0.635 | 0.641 | 1.07 | 0.995 | 0.964 | 0.907 | 0.853 | 0.895 | 0.948 | 0.832 | 0.643 | 1.01 | 1.1 | 1.09 | 1.02 | 0.747 | 0.607 |
| EBC-1 | 0.224 | 0.3 | 1.47 | 1.52 | 1.31 | – | – | – | – | – | – | – | – | – | – | 0.519 | 0.341 | 0.429 | 0.323 | 0.261 |
| ABC-1 | 1.23 | 1.24 | 1.25 | 1.01 | 0.98 | 0.636 | – | – | 0.527 | 0.442 | 0.346 | 0.484 | 0.467 | 0.225 | 0.504 | – | – | – | – | – |
| HCC-366 | 1.01 | 1.05 | 0.988 | – | 1.13 | – | – | – | – | 0.974 | – | 0.919 | 0.711 | 0.882 | – | 1.25 | 1.14 | 1.04 | 0.178 | 0.0486 |
| NCI-H1563 | 0.903 | 0.908 | 0.984 | 0.715 | 1.36 | 0.539 | 0.545 | 0.529 | 0.531 | 0.697 | 0.816 | 0.744 | 0.731 | 0.648 | 0.478 | – | – | – | – | – |
| NCI-H1648 | – | – | – | – | – | – | – | – | – | 0.279 | 0.276 | 0.232 | 0.261 | 0.26 | – | – | – | – | – | – |
| NCI-H1299 | 0.977 | 0.985 | 0.96 | 0.948 | 0.955 | – | – | – | – | – | – | – | – | – | – | 1.02 | 1.01 | 0.887 | 0.885 | 0.803 |
| A549 | 0.885 | 0.948 | 0.823 | 0.945 | 0.808 | – | – | – | – | – | – | – | – | – | – | 1.37 | 1.08 | 0.828 | 0.0937 | 0.0515 |
| NCI-H1623 | – | – | – | – | – | 0.44 | 0.513 | 0.383 | 0.651 | 0.444 | 0.442 | 0.421 | 0.336 | 0.376 | 0.476 | – | – | – | – | – |
| NCI-H1703 | 0.966 | 0.819 | 0.921 | 0.804 | 0.923 | – | – | – | – | – | – | – | – | – | – | 1.03 | 0.886 | 0.474 | 0.296 | 0.233 |
| HCC-78 | 0.458 | 0.363 | 0.726 | 0.548 | 0.463 | – | – | – | – | 0.37 | 0.366 | 0.419 | 0.292 | 0.349 | – | 1.05 | 0.782 | 0.848 | 0.878 | 0.926 |
| NCI-H522 | – | – | – | – | – | 1.16 | 1.24 | 1.15 | 0.987 | 0.705 | 0.513 | 0.762 | 0.688 | 0.62 | 0.867 | – | – | – | – | – |
| Calu-6 | 1.1 | 1.11 | 1.05 | 0.988 | 1.03 | – | – | – | – | – | – | – | – | – | – | 0.835 | 0.759 | 0.64 | 0.353 | 0.306 |
| ChaGo-K-1 | – | – | – | – | – | 0.566 | 0.591 | 0.62 | 0.432 | 0.582 | 0.396 | 0.55 | 0.492 | 0.432 | 0.548 | 1.42 | 0.876 | 0.762 | – | 0.712 |
| LCLC-103H | – | – | – | – | – | 0.948 | 0.98 | 0.999 | 0.721 | 0.444 | 0.495 | 0.515 | 0.509 | 0.442 | 0.886 | – | – | – | – | – |
